Assay results reported in PMC11259170, “Small-molecule probe for IBD risk variant GPR65 I231L alters cytokine signaling networks through positive allosteric modulation” (Science Advances, 2024).
Like-named read-outs stand apart in the source and are kept apart here.

Columns and labels:
hGPR65 = biological target: T1, hGPR65 (Homo sapiens, UniProt Q8IYL9); assay: cAMP detection in HeLa expression cell line, hGPR65; assay type: cell-based; conditions: for Emax: HeLa, relative to 100uM forskolin (100%) and DMSO (0%), read-out: hGPR Max Activity %; for cAMP production relative to BRD2813, hGPR65: pH 7.2
T1 construct: expressed in transfected cells; host or cells: HeLa (ATCC CCL-2), lentiviral transduction, pLX317
T1 sequence (Q8IYL9 whole entry): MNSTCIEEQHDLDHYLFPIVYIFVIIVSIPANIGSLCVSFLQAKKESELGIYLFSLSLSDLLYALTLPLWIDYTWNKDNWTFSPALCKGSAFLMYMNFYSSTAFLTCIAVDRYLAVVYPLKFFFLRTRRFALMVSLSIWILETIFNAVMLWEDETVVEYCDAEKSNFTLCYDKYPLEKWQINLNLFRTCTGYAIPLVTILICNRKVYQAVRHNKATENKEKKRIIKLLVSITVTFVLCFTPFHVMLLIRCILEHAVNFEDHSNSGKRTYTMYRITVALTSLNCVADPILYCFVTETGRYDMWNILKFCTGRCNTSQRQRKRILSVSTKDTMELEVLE
Procedure: (§1) HeLa stable expression cell lines were produced by lentiviral transduction. Briefly, lentiviral plasmids for each GPCR with a C-terminal V5 Tag ([…]) were made in a pLX317 backbone using competent Escherichia coli (New England Biolabs, C3050H). Lenti-X 293 T (Takara, 632810) cells were transfected with the lentiviral plasmids to produce virus. Low-passage HeLa cells (American Type Culture Collection, CCL-2) were then transduced with lentivirus. After 48 hours, HeLa cells were cultured under selection with puromycin (3 μg/ml) and allowed to recover and expand before storing stocks in liquid nitrogen.
(§2) cAMP was measured in cells using the Lance Ultra cAMP Kit. HeLa cells were cultured under puromycin (3 μg/ml) selection. One day before the experiment, cells were seeded in T75 flasks and allowed to adhere overnight. On the day of the experiment, cells were washed twice with Dulbecco’s PBS and lifted using prewarmed 1× versene solution (Gibco, 15040066). Cells were counted in HBSS (Gibco, 14025092) and then resuspended in stimulation buffer prepared according to the manufacturer’s instructions and adjusted to pH 7.2 using 1 M sodium hydroxide. Cells were added to the plate at a density of 1500 cells per well in white opaque 384-well assay ready microplates containing 100 nl of 10 mM compound in DMSO. Cells were stimulated for 30 min at RT, then lysed and incubated with detection reagents for 1 hour in the dark at RT. Plates were read on BMG Labtech PHERAstar FSX (excitation, 337 nm; emission, 620 and 665 nm). Data analysis was performed using GraphPad Prism.

mGPR65 = biological target: T2, mGPR65 (Mus musculus, UniProt Q61038); assay: cAMP detection in HeLa expression cell line, mGPR65; assay type: cell-based; conditions: for Emax: HeLa, read-out: mGPR Max Activity %; for Emax / mGPR Max Activity: relative to 100uM forskolin (100%) and DMSO (0%); for cAMP production relative to BRD2813, mGPR65: pH 7.2
T2 construct: expressed in transfected cells; host or cells: HeLa (ATCC CCL-2), lentiviral transduction, pLX317
T2 sequence (Q61038 whole entry): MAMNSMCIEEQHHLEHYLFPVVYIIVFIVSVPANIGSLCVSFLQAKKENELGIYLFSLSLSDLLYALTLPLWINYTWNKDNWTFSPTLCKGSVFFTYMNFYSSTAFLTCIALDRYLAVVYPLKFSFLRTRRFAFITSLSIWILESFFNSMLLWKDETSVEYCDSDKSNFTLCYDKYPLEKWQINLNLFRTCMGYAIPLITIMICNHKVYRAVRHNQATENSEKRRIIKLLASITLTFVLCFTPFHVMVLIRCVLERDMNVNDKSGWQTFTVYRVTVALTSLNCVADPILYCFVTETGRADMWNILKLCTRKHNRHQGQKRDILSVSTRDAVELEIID
Procedure: as §1, §2

[1] = 1st hGPR column pair, NA = no activity, read-out: hGPR EC50
[2] = 2nd hGPR column pair, NA = no activity, read-out: hGPR EC50
[3] = 1st hGPR column pair, NA = no activity
[4] = 2nd hGPR column pair, NA = no activity
[5] = 1st mGPR column pair, NA = no activity, read-out: mGPR EC50
[6] = 2nd mGPR column pair, NA = no activity, read-out: mGPR EC50
[7] = 2nd mGPR column pair, NA = no activity
[8] = SAR cAMP assay, first EC50/Max pair of hGPR columns, read-out: hGPR EC50
[9] = SAR cAMP assay, first EC50/Max pair, read-out: mGPR EC50
[10] = hGPR EC50 (uM), NA = no activity
[11] = mGPR EC50 (uM), 2nd mGPR column pair, NA = no activity
[12] = mGPR EC50 (uM), NA = no activity
[13] = 3rd mGPR column pair, NA = no activity, read-out: mGPR EC50

Row | Compound | EC50 (hGPR65; [1]) [µM] | Emax (hGPR65; [3]) [%] | Emax (hGPR65; [4]) [%] | EC50 (mGPR65; [5]) [µM] | EC50 (mGPR65; [6]) [µM] | Emax (mGPR65; [7]) [%] | Emax (mGPR65; NA = no activity) [%] | other results
1 | COCc1ccc(-c2cc(O)n3ncc(C(=O)Nc4cccc(C)c4)c3n2)cc1 [BRD1946] | 4.89 | 80.4 | 76.2 | 0.501 | 1.51 | 57.2 | 63.6 | EC50 (hGPR65; [2]): 4.97 µM
2 | Cc1ccc(NC(=O)c2cnn3c(O)cc(-c4ccc(-c5ccc(O)cc5)cc4)nc23)cc1 [BRD4475] |  |  |  |  |  |  |  | Emax (hGPR65; first pair): 22.6%; EC50 (hGPR65; [8]): 10.6 µM; Emax (mGPR65; first pair): 30.5%; EC50 (mGPR65; [9]): 1.66 µM
3 | Cc1ccc(NC(=O)c2cnn3c(O)cc(-c4ccc(N5CCN(C)CC5)c(Cl)c4)nc23)cc1 [BRD5068] | 1.76 | 53.1 | 36.9 | 0.613 | 1.04 | 66.5 | 71 | EC50 (hGPR65; [2]): 2.82 µM
4 | CCN1CC(c2cc(O)n3ncc(C(=O)Nc4ccc(Cl)cc4)c3n2)CC1=O (stereo not drawn) [BRD8856] |  |  |  | 0.662 |  |  | 10.9 | 
5 | Cc1ccc(NC(=O)c2cnn3c(O)cc(CCc4c(C)noc4C)nc23)cc1 [BRD8568] | 3.06 | 3.77 |  |  |  |  |  | 
6 | Cc1ccc(NC(=O)c2cnn3c(O)cc(-c4ccc(N5CCCN(C)CC5)cc4)nc23)cc1 [BRD8425] |  |  |  |  |  |  |  | Emax (mGPR65; first pair): 65.4%
7 | COCc1ccc(-c2cc(O)n3ncc(C(=O)Nc4ccc(OC)cc4)c3n2)cc1 [BRD5326] |  | 83 | 82.7 |  |  | 55.6 | 56.3 | EC50 (hGPR65; [10]): 1.26 µM; EC50 (hGPR65; hGPR EC50, NA = no activity): 0.903 µM; cAMP production relative to BRD2813, hGPR65 (hGPR65): little effect on cAMP production; EC50 (mGPR65; [11]): 1.26 µM; EC50 (mGPR65; [12]): 1.27 µM; cAMP production relative to BRD2813, mGPR65 (mGPR65): slight improvement in mGPR65 activity
8 | Cc1ccc(NC(=O)c2cnn3c(O)cc(-c4ccc(F)cc4)nc23)cc1 [BRD1827] | 0.635 | 78 | 77.5 | 1.37 | 1.29 | 43.8 | 43.6 | EC50 (hGPR65; [2]): 0.963 µM
9 | Cc1ccc(NC(=O)c2cnn3c(O)cc(Cc4c[nH]c5ccccc45)nc23)cc1 [BRD2917] |  |  |  | 18.9 |  |  | 7.25 | 
10 | COc1ccc(-c2cc(O)n3ncc(C(=O)Nc4ccc(C)cc4)c3n2)cc1 [BRD9965] | 0.734 | 73.8 | 66 | 24.2 | 32.3 | -39 | -56.6 | EC50 (hGPR65; [2]): 0.924 µM
11 | Cc1ccc(NC(=O)c2cnn3c(O)cc(-c4ccc(COC(C)C)cc4)nc23)cc1 [BRD5928] |  | 82.5 | 80 |  |  | 54.1 | 61.1 | EC50 (hGPR65; [10]): 0.271 µM; EC50 (hGPR65; hGPR EC50, NA = no activity): 0.629 µM; cAMP production relative to BRD2813, hGPR65 (hGPR65): induced high hGPR65 activity; EC50 (mGPR65; [11]): 0.494 µM; EC50 (mGPR65; [12]): 0.635 µM; cAMP production relative to BRD2813, mGPR65 (mGPR65): substantially increasing cAMP production
12 | COCc1ccc(-c2cc(O)n3ncc(C(=O)Nc4ccc(F)cc4)c3n2)cc1 [BRD3674] | 27.9 | 43.3 |  |  | 4.12 | 7.69 |  | 
13 | COc1cccc(Cc2cc(O)n3ncc(C(=O)Nc4ccccc4)c3n2)c1 [BRD7897] |  |  |  | 6.48 |  |  | ~22.7 | 
14 | Cc1ccc(NC(=O)c2cnn3c(O)cc(-c4ccc(-c5ccc(C(C)C)cc5)cc4)nc23)cc1 [BRD7984] |  |  |  |  |  |  |  | Emax (mGPR65; first pair): 12.4%; EC50 (mGPR65; [9]): 0.11 µM
15 | Cc1ccc(NC(=O)c2cnn3c(O)cc(-c4ccc(C(=O)NC(C)C)cc4)nc23)cc1 [BRD5085] | 2.75 | 46.6 | 31.2 | 0.441 | 4.17 | 32.7 | 98.4 | EC50 (hGPR65; [2]): 2.82 µM
16 | Cc1ccc(NC(=O)c2cnn3c(O)cc(C(C)Cn4nccc4C)nc23)cc1 (stereo not drawn) [BRD4822] |  |  |  | 2.82 | 4.33 | 25.4 | 42 | EC50 (mGPR65; [13]): 1.19 µM; mGPR Max Activity (mGPR65; NA = no activity): 35.73%
17 | Cc1ccc(NC(=O)c2cnn3c(O)cc(CCc4c(C)n[nH]c4C)nc23)cc1 [BRD5908] |  |  |  | 33 |  |  | 22.1 | 
18 | COc1cc(-c2cc(O)n3ncc(C(=O)Nc4ccc(C)cc4)c3n2)ccc1Cl [BRD5061] | 0.942 | 72.2 | 60.5 | 0.794 |  | 20.1 | 23.4 | EC50 (hGPR65; [2]): 1.57 µM
19 | Cc1[nH]c2ccccc2c1Cc1cc(O)n2ncc(C(=O)Nc3ccccc3)c2n1 [BRD5828] |  |  |  | 0.649 | 0.785 | 18.4 | 25.8 | 
20 | COCc1ccc(-c2cc(O)n3nccc3n2)cc1 [BRD2453] | 18.6 | 11.7 |  |  |  |  |  | 
21 | CCOCc1ccc(-c2cc(O)n3ncc(C(=O)Nc4ccc(C)cc4)c3n2)cc1 [BRD6745] | 0.667 | 83.5 | 81.6 | 0.554 | 0.511 | 48.9 | 52.9 | EC50 (hGPR65; [2]): 0.413 µM
22 | Cc1cnc(NC(=O)c2cnn3c(O)cc(-c4ccc(COC(C)C)cc4)nc23)nc1 [BRD5076] | 2 | 72.4 | 69.9 | 1.14 | 1.8 | 56.3 | 59.9 | EC50 (hGPR65; [2]): 1.64 µM
23 | Cc1ccc(NC(=O)c2cnn3c(O)cc(-c4ccc(Oc5ccccc5)cc4)nc23)cc1 [BRD3067] |  |  |  |  |  |  |  | Emax (hGPR65; first pair): 36.3%; EC50 (hGPR65; [8]): 11.1 µM
24 | COCc1ccc(-c2cc(OC)n3ncc(C(=O)Nc4ccc(C)cc4)c3n2)cc1 [BRD2344] |  |  |  | 0.737 |  |  | 4.13 | 
25 | CCOC(=O)c1cnn2c(O)cc(C)nc12 [BRD9804] | 77.6 | 5.41 |  |  |  |  |  | 
26 | COc1ccc(-c2ccn3ncc(C(=O)Nc4ccc(C)cc4)c3n2)cc1 [BRD6737] | 0.0844 | 7.95 |  |  |  |  |  | 
27 | COCc1ccc(-c2cc(O)n3ncc(C(=O)NCc4ccc(C)cc4)c3n2)cc1 [BRD4305] |  |  |  | 2.31 | 1.44 | 36.9 | 67.8 | EC50 (mGPR65; [13]): 1.07 µM; mGPR Max Activity (mGPR65; NA = no activity): 60.85%
28 | COCc1ccc(-c2cc(O)n3ncc(C(=O)N4CCS(=O)(=O)CC4)c3n2)cc1 [BRD3128] | 11 | 3.44 |  |  |  |  |  | 
